From patent US12466816B2, “Fused cyclic compound capable of degrading protein and use thereof” (Medshine Discovery Inc., priority 2019, dated 2025)

Experiments:
tumor cell lines = test: Cell experiment: CCK-8 growth inhibition of tumor cell lines; assay type: cell-based; conditions: 72 hours, hematological tumor cells and some liver cancer cells, read-out: growth inhibitory effect (inhibition rate)
Procedure: Different cells were seeded in 96-well plates (the density of adherent cells was 1,000/well and the density of suspension cells was 10,000/well), 10 μM of WX106 was added for 72 hours of action, and CCK-8 reagent (Meilun Biotechnology, MA0218-L) was added for 2 hours of reaction thereafter; and the plate was then read with a microplate reader (SpectraMax i3) and the inhibition rate was calculated. Inhibition rate=[(Ac−As)/(Ac−Ab)]×100% (where As represents the absorbance of experimental wells, Ac represents the absorbance of control wells, and Ab represents the absorbance of blank wells).
Eighteen tumor cell lines were treated with 10 μM of WX106 for 72 hours, and the rate of inhibition of cell growth by WX106 was calculated.

Wee1-CRBN complex = target: T1, Wee1-CRBN complex (Homo sapiens, UniProt P30291+Q96SW2); test: Co-immunoprecipitation; assay type: cell-based; conditions: 293T cells
T1 construct: expressed in transfected cells; host or cells: 293T
Procedure: The plasmid was transfected into 293T cells. After 24 hours, the compound WX106 was added to treat the cells for a certain period of time. The cells were lysed with NETN lysis buffer (150 mM NaCl, 50 mM Tris-HCl of pH 8.0, 1% NP40), followed by incubation with agarose beads (EZview™ Red anti-HA affinity gel, Sigma, E6779; anti-FLAG® M2 affinity gel, Sigma, A2220) and lysis buffer for 2 hours. The beads were washed 4 times with lysis buffer, loading buffer (100 mM Tris-HCl, 4% SDS, 0.05% BPB, 2% β-mercaptoethanol, 20% glycerol) was added and detection was performed using Western blot.
According to FIG. 24, HA CRBN (CRBN was overexpressed in cells by transfection technology; HA is a polypeptide and CRBN fusion expression; CRBN refers to endogenous CRBN in cells) and FLAG Wee1 (Wee1 was overexpressed in cells by transfection technology; FLAG is a polypeptide and CRBN fusion expression; Wee1 refers to endogenous Wee1 in cells) were overexpressed in 293T cells [and left to stand] for 24 hours after transfection; thereafter, the cells were treated with 20 μM MG132 or 10 μM WX106 1 h and 2 h before they were harvested for Co-IP (co-immunoprecipitation) assay, respectively. […] According to FIG. 26, overexpressed CRBN and endogenous Wee1 were used for co-immunoprecipitation. […] According to FIG. 27, different Wee1 fragments were cloned separately and subjected to Co-IP with CRBN.

Wee1 = Wee1 (Homo sapiens, UniProt P30291); test: Detection of compounds that degrade Wee1 protein (Western blot); assay type: cell-based; parameters: endogenous in cells; host or cells: MOLT-4, U87-MG; conditions: MOLT-4 cells 10 μM 4 hours, U87-MG cells 1 μM 24 hours
Procedure: MOLT-4 cells were treated with 10 μM of the test compound for 4 hours and U87-MG cells were treated with 1 μM of the test compound for 24 hours, respectively. With GAPDH (Santa Cruz, sc-32233) as the internal reference protein, the protein level of Wee1 (Cell Signaling, 13084S) was detected using Western blot. Cells were collected, lysed with protein loading buffer (1M Tris-HCl, 10% SDS, 0.025% BPB), and denatured at 98° C. for 10 min before Western blot analysis. The main steps include: 1) Electrophoresis: The protein was separated by SDS-PAGE electrophoresis. During the electrophoresis, the voltage was adjusted to 80 v for about 30 min, and then the voltage was adjusted to 120 v until the bromophenol blue ran out of the gel. 2) Transfer to a membrane: the gel was stuck to a methanol-activated PVDF membrane using the method of wet transfer, and after the top and bottom layers were wrapped with filter paper, the membrane was placed into the gel holder cassette and fixed to the transfer tank, and transfer was performed at a constant current of 250 mA for 90 min; 3) Blocking: the PVDF membrane with trace protein was placed into the antibody incubation box, 5% skim milk was added to completely cover the PVDF membrane, and incubation was performed for 1 hour on a shaker at room temperature; 4) Incubation of the primary antibody: the primary antibody was prepared with 5% BSA (1:1000) and incubated overnight on a shaker at 4° C.; 5) Incubation of the secondary antibody: the membrane was washed thrice with TBST, the secondary antibody (prepared with 5% skim milk) was added (according to the species source of the primary antibody, different secondary antibodies with a dilution range of 1:3000-1:10000 were used), and incubation was performed on a shaker at room temperature for one hour; 5) Exposure: the membrane was washed thrice with TBST and the bands on the membrane were detected by chemiluminescence.

CRBN = CRBN (Homo sapiens, UniProt Q96SW2); test: Thermal displacement experiment (CRBN thermal stability, Western blot); assay type: binding; parameters: endogenous in cells; conditions: 100 μM, 293T cell lysates, 56° C. and 59° C.
Procedure: The experiment utilizes the principle that the binding of small molecular compounds to proteins can improve the thermal stability of proteins. 3×10^7 cells were collected and washed twice with phosphate buffered saline (PBS). 100×protease inhibitor cocktail (APEXBIO, K1007) was added to pre-cooled PBS to suspend the cells, and 500 μL of cell suspension was aliquoted into each 1.5 EP tube. The EP tube was placed in liquid nitrogen for quick freezing for 5 min and then transferred to a 26° C. water bath quickly; thereafter, the EP tube was transferred to a 4° C. environment when the liquid is half thawed, until it is completely thawed. This freeze-thaw procedure was performed thrice to allow complete protein precipitation from the cells. The frozen-thawed product was centrifuged at 4° C. for 20 min, the supernatant was aspirated and mixed, and then aliquoted into 1.5 mL EP tubes, and DMSO and WX106 were added respectively to adjust the concentration of WX106 in the solution to 100 μM. […] After the heat shock at all temperatures, the DMSO- and WX106-treated samples at each temperature were collected respectively, centrifuged at 4° C. for 20 min, and the concentration of BCA protein (Thermo) was quantified; at the same time, Western blot was performed to detect the changes of CRBN (Anti-CRBN antibody, Sigma Company, HPA045910) protein content. […]

T1 sequence (Q96SW2 whole entry): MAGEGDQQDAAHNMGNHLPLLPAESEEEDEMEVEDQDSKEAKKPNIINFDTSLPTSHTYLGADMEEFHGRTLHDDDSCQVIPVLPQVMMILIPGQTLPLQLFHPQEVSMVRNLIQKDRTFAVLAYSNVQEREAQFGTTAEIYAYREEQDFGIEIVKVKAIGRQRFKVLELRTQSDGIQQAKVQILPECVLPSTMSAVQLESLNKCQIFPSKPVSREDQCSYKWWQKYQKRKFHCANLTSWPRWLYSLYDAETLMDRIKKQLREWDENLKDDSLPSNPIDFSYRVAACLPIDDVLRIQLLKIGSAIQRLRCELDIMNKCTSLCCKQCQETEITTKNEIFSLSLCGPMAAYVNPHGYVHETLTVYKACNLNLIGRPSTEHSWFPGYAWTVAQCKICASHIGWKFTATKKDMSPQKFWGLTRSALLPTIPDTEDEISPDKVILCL
T1 sequence (P30291 whole entry): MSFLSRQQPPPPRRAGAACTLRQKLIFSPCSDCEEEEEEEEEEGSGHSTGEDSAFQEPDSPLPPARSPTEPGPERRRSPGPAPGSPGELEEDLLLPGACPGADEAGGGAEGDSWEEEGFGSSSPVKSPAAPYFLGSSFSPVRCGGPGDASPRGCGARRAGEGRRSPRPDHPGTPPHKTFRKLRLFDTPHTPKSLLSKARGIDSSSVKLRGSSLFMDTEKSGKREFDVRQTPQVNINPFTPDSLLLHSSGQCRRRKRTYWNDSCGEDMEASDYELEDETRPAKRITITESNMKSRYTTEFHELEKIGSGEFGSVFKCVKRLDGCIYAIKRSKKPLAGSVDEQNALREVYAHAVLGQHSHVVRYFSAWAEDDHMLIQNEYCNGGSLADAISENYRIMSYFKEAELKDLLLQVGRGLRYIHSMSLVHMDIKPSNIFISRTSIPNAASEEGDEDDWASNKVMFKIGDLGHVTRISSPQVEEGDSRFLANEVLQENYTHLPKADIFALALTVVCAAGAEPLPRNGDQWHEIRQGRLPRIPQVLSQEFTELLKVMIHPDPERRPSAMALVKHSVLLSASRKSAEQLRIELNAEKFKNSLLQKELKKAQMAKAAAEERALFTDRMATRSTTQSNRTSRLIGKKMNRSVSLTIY
T1 sequence (Q16531 whole entry partner): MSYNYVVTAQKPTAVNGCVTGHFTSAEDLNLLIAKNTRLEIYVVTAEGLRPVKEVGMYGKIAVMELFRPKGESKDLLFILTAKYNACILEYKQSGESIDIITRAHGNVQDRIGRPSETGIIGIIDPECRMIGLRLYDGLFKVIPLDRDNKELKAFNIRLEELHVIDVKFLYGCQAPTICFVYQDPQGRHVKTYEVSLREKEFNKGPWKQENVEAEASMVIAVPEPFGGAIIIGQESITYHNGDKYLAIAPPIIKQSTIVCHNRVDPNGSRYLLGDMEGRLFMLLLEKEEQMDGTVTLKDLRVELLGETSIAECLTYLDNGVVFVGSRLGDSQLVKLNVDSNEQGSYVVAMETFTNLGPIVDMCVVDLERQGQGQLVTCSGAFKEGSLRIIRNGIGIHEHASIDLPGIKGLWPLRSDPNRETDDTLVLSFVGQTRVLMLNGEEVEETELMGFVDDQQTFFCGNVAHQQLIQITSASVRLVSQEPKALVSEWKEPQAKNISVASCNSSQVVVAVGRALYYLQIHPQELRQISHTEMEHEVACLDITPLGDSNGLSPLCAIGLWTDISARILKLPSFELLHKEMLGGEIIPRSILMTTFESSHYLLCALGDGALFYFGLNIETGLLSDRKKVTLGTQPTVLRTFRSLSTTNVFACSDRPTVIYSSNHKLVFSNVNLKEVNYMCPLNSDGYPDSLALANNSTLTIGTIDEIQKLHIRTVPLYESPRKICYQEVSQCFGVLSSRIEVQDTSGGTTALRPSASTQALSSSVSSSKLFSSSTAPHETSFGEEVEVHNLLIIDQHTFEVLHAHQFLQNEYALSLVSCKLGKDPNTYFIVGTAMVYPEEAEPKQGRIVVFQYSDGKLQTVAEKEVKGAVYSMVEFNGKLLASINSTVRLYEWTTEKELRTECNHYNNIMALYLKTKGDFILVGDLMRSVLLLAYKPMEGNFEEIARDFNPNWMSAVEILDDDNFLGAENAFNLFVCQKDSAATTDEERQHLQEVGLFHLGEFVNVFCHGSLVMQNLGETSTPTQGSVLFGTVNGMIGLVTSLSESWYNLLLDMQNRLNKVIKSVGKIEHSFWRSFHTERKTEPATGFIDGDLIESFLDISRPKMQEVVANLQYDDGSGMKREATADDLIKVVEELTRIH
Sequence of Wee1 (P30291 whole entry): as the sequence (P30291 whole entry) above
Sequence of CRBN (Q96SW2 whole entry): as the sequence (Q96SW2 whole entry) above

Cc1ccc(C(=O)Nc2ccc3occ(C4CCC(=O)NC4=O)c3c2)cc1Cl (stereo not drawn) [WX106]
inhibition at 10 µM (tumor cell lines): > 50% | complex formed by Wee1 and CRBN (HA CRBN and FLAG Wee1 overexpressed) (Wee1-CRBN complex; 10 μM WX106, 20 μM MG132, FIG. 24): significantly increased | complex formed by Wee1 and CRBN (overexpressed CRBN and endogenous Wee1) (Wee1-CRBN complex; FIG. 26): significantly increased | pro-degradation effect on Wee1 (Wee1): pro-degradation effect on Wee1 | relative strength of the pro-degradation effect on Wee1 (Wee1; among tested compounds): the strongest | CRBN protein abundance after heat shock (CRBN): significantly increased
